The values that follow come from patent US20110182992A1, “PEPTIDES AND PEPTIDE MIMETICS TO TREAT PATHOLOGIES ASSOCIATED WITH EYE DISEASE” (priority 2008, published 2011).

For data set [1] the following is noted: in vivo; cited from earlier work.
The test system of data set [2] is ApoE null mice. Put plainly: HDL and pre-beta HDL from apoE null mice fed solution-phase synthesized D-4F: inhibition of LDL-induced monocyte chemotaxis. The class given is in vivo, mouse. As to conditions: ApoE null mice fed 5 micrograms in chow, bled after twelve hours; product of solution phase synthesis. An excerpt: ApoE null mice were fed 5 micrograms of the D-4F synthesized as described above (Frgmnt) or the mice were given the same amount of mouse chow without D-4F (Chow). Twelve hours after the feeding was started, the mice were bled and their plasma was fractionated on FPLC.

Data set [3] concerns ApoE null mice. Put plainly: Trabecular bone mineral density, peptide in drinking water. The class given is in vivo, mouse. As to conditions: drinking water for 6 weeks.
The conditions of data set [4]: mouse, in vivo.
For data set [5], the system named is ApoE null mice. Put plainly: HDL function after D-4F and/or statin in the drinking water. The class given is in vivo, mouse. To be noted: 1 μg/ml in the drinking water for 24 hours.
The next data set deals with LDL receptor null mice. Put plainly: HDL protective capacity in LDL receptor null mice given peptide in drinking water. To be noted: 0.25 or 0.5 mg per ml of drinking water, 24 or 48 hrs, mouse HDL at 100 μg/ml. It counts as in vivo. On the procedure: FIG. 3 illustrates the effect of apo J peptide mimetics on HDL protective capacity in LDL receptor null mice. The values are the mean±SD of the number of migrated monocytes in 9 high power fields from each of quadruple assay wells.
D-4F designated as F, or the apoJ peptide made from D amino acids (D-J336, designated as J) was added to the drinking water of LDL receptor null mice (4 per group) at 0.25 or 0.5 mg per ml of drinking water. After 24- or 48-hrs blood was collected from the mice and their HDL was isolated and tested for its ability to protect against LDL-induced monocyte chemotactic activity. Assay controls included culture wells that received no lipoproteins (no addition), or control human LDL alone (designated as LDL, 200µg cholesterol/ml), or control LDL+ control human HDL (designated as +HDL, 350µg HDL cholesterol). For testing the mouse HDL, the control LDL was added together with mouse HDL (+F HDL or +J HDL) to artery wall cell cultures. The mouse HDL was added at 100 μg cholesterol/ml respectively.

Data set [6] relates to ApoE null mice. Put plainly: HDL Inflammatory Index, D-4F versus Reverse D-4F by stomach tube. The class given is in vivo, mouse. As to conditions: apoE null mice, 0, 3, 6, 12 or 25 micrograms by stomach tube, blood 7 hours later. On the procedure:
Female apoE null mice were administered by stomach tube 0, 3, 6, 12, or 25 micrograms of D-4F or Reverse D-4F in 100 microliters of water. Blood was obtained 7 hours later and the plasma was fractionated by FPLC. A standard control human LDL was added to human artery wall cells at a concentration of 100 micrograms of LDL-cholesterol/mL (LDL). The resulting monocyte chemotactic activity was normalized to 1.0. […] The resulting monocyte chemotactic activity was normalized to that of the LDL added without HDL. The resulting value is the HDL Inflammatory Index. The results shown are the Mean±S.D. for the data from three separate experiments.

Data set [7] has as its system ApoE null mice. As to the kind of experiment: Protection against LDL-induced monocyte chemotactic activity by HDL from apo E null mice given oral peptides. To be noted: ApoE null mice, peptide in drinking water 24 hrs; murine HDL at 100 μg/ml. The class given is in vivo, mouse. The text has this:
FIG. 4 illustrates protection against LDL-induced monocyte chemotactic activity by HDL from apo E null mice given oral peptides. The values are the mean±SD of the number of migrated monocytes in 9 high power fields from each of quadruple assay wells. Asterisks indicate significant difference (p<0.05) as compared to No Peptide mHDL.
After 24 hrs blood was collected, plasma fractionated by FPLC and fractions containing LDL (designated as mLDL for murine LDL) and fractions containing HDL (designated as mHDL) were separately pooled and HDL protective capacity against LDL oxidation as determined by LDL-induced monocyte chemotactic activity was determined. For the assay controls the culture wells received no lipoproteins (no additions), mLDL alone (at 200 μg cholesterol/ml), or mLDL+ standard normal human HDL (designated as Cont. h HDL, at 350 μg HDL cholesterol/ml).
For testing the murine HDL, mLDL together with murine HDL (+F mHDL or +J mHDL) were added to artery wall cell cultures. […] The murine HDL was used at 100µg cholesterol/ml.

In a further data set the test system is Obese Zucker rats. Put plainly: Plasma glucose and lipid hydroperoxides (LOOH) in obese Zucker rats. It counts as in vivo, rat. To be noted: Obese Zucker rats 26 weeks of age, 5.0 mg/kg/day intraperitoneal, 10 days. On the procedure: Obese Zucker rats 26 weeks of age were bled and then treated with daily intraperitoneal injections of D-4F (5.0 mg/kg/day). After 10 days the rats were bled again plasma glucose and lipid hydroperoxides (LOOH) were determined. *p=0.027; **p=0.0017.

Structures are written as SMILES.

As for `CC(=O)N[C@H](CC(=O)O)C(=O)N[C@H](Cc1c[nH]c2ccccc12)C(=O)N[C@H](Cc1ccccc1)C(=O)N[C@H](CCCCN)C(=O)N[C@H](C)C(=O)N[C@H](Cc1ccccc1)C(=O)N[C@H](Cc1ccc(O)cc1)C(=O)N[C@H](CC(=O)O)C(=O)N[C@H](CCCCN)C(=O)N[C@@H](C(=O)N[C@H](C)C(=O)N[C@H](CCC(=O)O)C(=O)N[C@H](CCCCN)C(=O)N[C@H](Cc1ccccc1)C(=O)N[C@H](CCCCN)C(=O)N[C@H](CCC(=O)O)C(=O)N[C@H](C)C(=O)N[C@H](Cc1ccccc1)C(N)=O)C(C)C` [Peptide D-4F, Ac-D-W-F-K-A-F-Y-D-K-V-A-E-K-F-K-E-A-F-NH2], the side effects entry in data set [1] is “no side effects”. Also, the “biological activity in producing HDL and pre-beta HDL that inhibit LDL-induced monocyte chemotaxis” value with ApoE null mice [2] is “very biologically active in producing HDL and pre-beta HDL that inhibit LDL-induced monocyte chemotaxis”. The “trabecular bone mineral density” value in the data set on ApoE null mice [3] was “dramatically increased trabecular bone mineral density”. Besides, the “association with pre-beta HDL and HDL” value in data set [4] is “rapidly associates with pre-beta HDL and HDL”. In addition, in [4] (po), the “time after an oral dose at which essentially non-detectable in the circulation” value was found to be 6 h. The “HDL function, D-4F alone” value in the data set on ApoE null mice [5] is listed as “did not significantly improve HDL function”. The “activity of mouse HDL in preventing control LDL from inducing artery wall cells to produce monocyte chemotactic activity” value in the data set on LDL receptor null mice is reported as “as active as 350 μg/ml of control human HDL”. In the data set with ApoE null mice [6], the “biological activities (HDL Inflammatory Index), D-4F versus Reverse D-4F” value is listed as “not significantly different”. Moreover, the “activity of murine HDL against LDL-induced monocyte chemotactic activity” value with ApoE null mice [7] is given as “as active as 350µg/ml of normal human HDL”. Moreover, the “mitigation of symptoms of diabetes (plasma glucose, lipid hydroperoxides)” value in the data set on Obese Zucker rats was “effective in mitigating symptoms of diabetes”.
